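Where inhibition never reached the appropriate level, the endpoint shown equals the highest concentration tested. Otherwise, values were interpolated linearly from a five-concentration, 48-hour dose response in 96-well plates. The concentration for 50% growth inhibition is given as GI50.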 Calls of active or inactive are those of the source. Cut-off read from the data, not from the text of the source: active = GI50 up to about 1.1 µM and inactive = higher.
Tests used:
Test in all cases: inhibition of tumour cell growth, NCI panel, 48 h
786-0 = test system: 786-0
A498 = test system: A498
A549 = test system: A549
ACHN = test system: ACHN
CAKI-1 = test system: CAKI-1
CCRF-CEM = test system: CCRF-CEM
COLO 205 = test system: COLO 205
DLD-1 = test system: DLD-1
DMS-114 = test system: DMS-114
DMS-273 = test system: DMS-273
EKVX = test system: EKVX
HCC 2998 = test system: HCC 2998
HCT-116 = test system: HCT-116
HCT-15 = test system: HCT-15
HL-60 = test system: HL-60
HOP-18 = test system: HOP-18
HOP-62 = test system: HOP-62
HOP-92 = test system: HOP-92
HT-29 = test system: HT-29
IGROV-1 = test system: IGROV-1
K562 = test system: K562
KM12 = test system: KM12
LOX IMVI = test system: LOX IMVI
LXFL 529 = test system: LXFL 529
M14 = test system: M14
M19-MEL = test system: M19-MEL
MOLT-4 = test system: MOLT-4
Malme-3M = test system: Malme-3M
NCI-H226 = test system: NCI-H226
NCI-H23 = test system: NCI-H23
NCI-H460 = test system: NCI-H460
NCI-H522 = test system: NCI-H522
OVCAR-3 = test system: OVCAR-3
OVCAR-4 = test system: OVCAR-4
OVCAR-5 = test system: OVCAR-5
OVCAR-8 = test system: OVCAR-8
RPMI-8226 = test system: RPMI-8226
SF-295 = test system: SF-295
SF-539 = test system: SF-539
SK-MEL-28 = test system: SK-MEL-28
SK-MEL-2 = test system: SK-MEL-2
SK-MEL-5 = test system: SK-MEL-5
SK-OV-3 = test system: SK-OV-3
SN12C = test system: SN12C
SNB-19 = test system: SNB-19
SNB-75 = test system: SNB-75
SNB-78 = test system: SNB-78
SR = test system: SR
SW-620 = test system: SW-620
TK-10 = test system: TK-10
U-251 = test system: U-251
UACC-257 = test system: UACC-257
UACC-62 = test system: UACC-62
UO-31 = test system: UO-31
KM-20L2 = test system: KM-20L2
SF-268 = test system: SF-268

## OCC1OC(n2ccc3cnccc32)CC1O (centres undefined)
786-0
  GI50: > 100 µM (inactive)
A498
  GI50: > 100 µM (inactive)
A549
  GI50: > 100 µM (inactive)
ACHN
  GI50: > 100 µM (inactive)
CAKI-1
  GI50: > 100 µM (inactive)
CCRF-CEM
  GI50: > 100 µM (inactive)
COLO 205
  GI50: > 100 µM (inactive)
DLD-1
  GI50: > 100 µM (inactive)
DMS-114
  GI50: > 100 µM (inactive)
DMS-273
  GI50: > 100 µM (inactive)
EKVX
  GI50: > 100 µM (inactive)
HCC 2998
  GI50: > 100 µM (inactive)
HCT-116
  GI50: > 100 µM (inactive)
HCT-15
  GI50: > 100 µM
HL-60
  GI50: > 100 µM (inactive)
HOP-18
  GI50: > 100 µM (inactive)
HOP-62
  GI50: > 100 µM (inactive)
HOP-92
  GI50: > 100 µM (inactive)
HT-29
  GI50: > 100 µM (inactive)
IGROV-1
  GI50: > 100 µM (inactive)
K562
  GI50: > 100 µM (inactive)
KM12
  GI50: > 100 µM (inactive)
LOX IMVI
  GI50: > 100 µM (inactive)
LXFL 529
  GI50: > 100 µM (inactive)
M14
  GI50: > 100 µM (inactive)
M19-MEL
  GI50: > 100 µM (inactive)
MOLT-4
  GI50: > 100 µM (inactive)
Malme-3M
  GI50: > 100 µM (inactive)
NCI-H226
  GI50: > 100 µM (inactive)
NCI-H23
  GI50: > 100 µM (inactive)
NCI-H460
  GI50: > 100 µM (inactive)
NCI-H522
  GI50: > 100 µM (inactive)
OVCAR-3
  GI50: > 100 µM (inactive)
OVCAR-4
  GI50: > 100 µM (inactive)
OVCAR-5
  GI50: > 100 µM (inactive)
OVCAR-8
  GI50: > 100 µM (inactive)
RPMI-8226
  GI50: > 100 µM (inactive)
SF-295
  GI50: > 100 µM (inactive)
SF-539
  GI50: > 100 µM (inactive)
SK-MEL-28
  GI50: > 100 µM (inactive)
SK-MEL-2
  GI50: > 100 µM (inactive)
SK-MEL-5
  GI50: > 100 µM (inactive)
SK-OV-3
  GI50: > 100 µM (inactive)
SN12C
  GI50: > 100 µM (inactive)
SNB-19
  GI50: > 100 µM (inactive)
SNB-75
  GI50: > 100 µM (inactive)
SNB-78
  GI50: > 100 µM (inactive)
SR
  GI50: > 100 µM (inactive)
SW-620
  GI50: > 100 µM (inactive)
TK-10
  GI50: > 100 µM (inactive)
U-251
  GI50: > 100 µM (inactive)
UACC-257
  GI50: > 100 µM (inactive)
UACC-62
  GI50: > 100 µM (inactive)
UO-31
  GI50: > 100 µM (inactive)

## COc1nc(NC2OC(COC(C)=O)C(OC(C)=O)C(OC(C)=O)C2OC(C)=O)c(/N=C/C=N/c2c(NC3OC(COC(C)=O)C(OC(C)=O)C(OC(C)=O)C3OC(C)=O)nc(OC)[nH]c2=O)c(=O)[nH]1 (centres undefined)
786-0
  GI50: > 100 µM (inactive)
A498
  GI50: > 100 µM (inactive)
A549
  GI50: > 100 µM (inactive)
ACHN
  GI50: > 100 µM (inactive)
CAKI-1
  GI50: > 100 µM (inactive)
CCRF-CEM
  GI50: > 100 µM (inactive)
COLO 205
  GI50: > 100 µM (inactive)
DLD-1
  GI50: > 100 µM (inactive)
DMS-114
  GI50: > 100 µM (inactive)
EKVX
  GI50: > 100 µM (inactive)
HCC 2998
  GI50: > 100 µM (inactive)
HCT-116
  GI50: > 100 µM (inactive)
HL-60
  GI50: > 100 µM (inactive)
HOP-18
  GI50: > 100 µM (inactive)
HOP-62
  GI50: > 100 µM (inactive)
HOP-92
  GI50: > 100 µM (inactive)
HT-29
  GI50: > 100 µM (inactive)
IGROV-1
  GI50: > 100 µM (inactive)
K562
  GI50: > 100 µM (inactive)
KM-20L2
  GI50: > 100 µM (inactive)
KM12
  GI50: > 100 µM (inactive)
LOX IMVI
  GI50: > 100 µM (inactive)
LXFL 529
  GI50: > 100 µM (inactive)
M14
  GI50: > 100 µM (inactive)
M19-MEL
  GI50: > 100 µM (inactive)
MOLT-4
  GI50: > 100 µM (inactive)
Malme-3M
  GI50: > 100 µM (inactive)
NCI-H226
  GI50: > 100 µM (inactive)
NCI-H23
  GI50: > 100 µM (inactive)
NCI-H522
  GI50: > 100 µM (inactive)
OVCAR-3
  GI50: > 100 µM (inactive)
OVCAR-4
  GI50: > 100 µM (inactive)
OVCAR-5
  GI50: > 100 µM (inactive)
OVCAR-8
  GI50: > 100 µM (inactive)
RPMI-8226
  GI50: > 100 µM (inactive)
SF-268
  GI50: > 100 µM (inactive)
SF-295
  GI50: > 100 µM (inactive)
SF-539
  GI50: > 100 µM (inactive)
SK-MEL-28
  GI50: > 100 µM (inactive)
SK-MEL-5
  GI50: > 100 µM (inactive)
SK-OV-3
  GI50: > 100 µM (inactive)
SN12C
  GI50: > 100 µM (inactive)
SNB-19
  GI50: > 100 µM (inactive)
SNB-75
  GI50: > 100 µM (inactive)
SW-620
  GI50: > 100 µM (inactive)
TK-10
  GI50: > 100 µM (inactive)
U-251
  GI50: > 100 µM (inactive)
UACC-257
  GI50: > 100 µM (inactive)
UACC-62
  GI50: > 100 µM (inactive)
UO-31
  GI50: > 100 µM (inactive)

Reference: ChEMBL document CHEMBL1201862, “PubChem BioAssay data set” (2004)
